Among the test systems are DU-145; EKVX; HCT-15; KM12; MDA-MB-231; MOLT-4; NCI-H460; NCI/ADR-RES; OVCAR-3; OVCAR-8; SF-295; SK-MEL-2; SN12C; SNB-19; SNB-75; SW-620; U-251; UACC-62.
Common to all, as to experiment: NCI anticancer screen, dose series, 48 h

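Cells were grown in 96-well plates and exposed to each compound for 48 hours at five concentrations; endpoints were interpolated linearly between bracketing concentrations, or set to the highest concentration if not reached. GI50 is the concentration that inhibits growth by half.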 Active and inactive are the calls of the source. Cut-off read from the data, not from the text of the source: active = GI50 up to about 1.1 µM and inactive = higher.

As for `CCC1C(=O)OCc2c1cc1n(c2=O)Cc2cc3ccccc3nc2-1` (stereo not drawn), the GI50 in the test on DU-145 was 2.98 µM (inactive); in the test on EKVX, 77.6 µM (inactive); in the test on HCT-15 it was 43.4 µM; with KM12, 50.9 µM (inactive); in the test with MDA-MB-231, > 100 µM (inactive); in the test on MOLT-4 it was 0.733 µM (active). Also, the GI50 with NCI-H460 is 0.802 µM (active); in the test on NCI/ADR-RES it was 8.43 µM (inactive); in the test on OVCAR-3, > 100 µM (inactive); in the test on OVCAR-8 it was 5.69 µM (inactive); in the test with SF-295, 2.38 µM (inactive); with SK-MEL-2 it was > 100 µM (inactive). For the same compound, the GI50 in the test on SN12C was 5.07 µM (inactive); with SNB-19 it was 5.13 µM (inactive); in the test on SNB-75, 1.96 µM (inactive); in the test on SW-620, 7.16 µM (inactive); in the test on U-251 it was 3.53 µM (inactive); with UACC-62, 3.72 µM (inactive).
`CC1(C)CCCCCCCCCC2CC2CCC(C)(C)C1=O` (stereo not drawn): the GI50 in the test with DU-145 was 20.5 µM (inactive); in the test with EKVX it was 20.2 µM (inactive); in the test on HCT-15, 16.5 µM; in the test on KM12, 18.4 µM (inactive); in the test with MDA-MB-231 it was 17.3 µM (inactive); with MOLT-4, 28.5 µM (inactive). For the same compound, the GI50 in the test on NCI-H460 was 21.1 µM (inactive); in the test with NCI/ADR-RES it was 21 µM (inactive); in the test on OVCAR-3, 12.7 µM (inactive); in the test on OVCAR-8 it was 30.2 µM (inactive); in the test on SF-295 it was 18.3 µM (inactive); with SK-MEL-2 it was 18.6 µM (inactive). The GI50 in the test on SN12C is 18.4 µM (inactive); with SNB-19, 34.6 µM (inactive); with SNB-75 it was 28.6 µM (inactive); in the test with SW-620 it was 35.9 µM (inactive); in the test with U-251 it was 18.7 µM (inactive); with UACC-62, 36.1 µM (inactive).
On to `O=c1[nH]c(=O)n(COCCOCc2ccccc2)cc1Nc1ccccc1`, for which the GI50 was > 100 µM (inactive) in the test with DU-145; > 100 µM (inactive) in the test with EKVX; over 100 µM in the test on HCT-15; > 100 µM (inactive) with KM12; > 100 µM (inactive) in the test with MDA-MB-231; 59.4 µM (inactive) with MOLT-4. The GI50 in the test with NCI-H460, in the test on NCI/ADR-RES, with OVCAR-3, in the test with OVCAR-8, with SF-295 and with SK-MEL-2 was > 100 µM (inactive) throughout. Besides, the GI50 with SN12C, in the test with SNB-19, in the test on SNB-75, with SW-620, in the test with U-251 and in the test with UACC-62 was > 100 µM (inactive) each time.
For `CCNC(=O)c1cc(/C=C/c2ccc([N+](=O)[O-])o2)nc2ccccc12`, the GI50 in the test with DU-145 is 2.74 µM (inactive); in the test with EKVX, > 58.2 µM (inactive); in the test with HCT-15, 3.88 µM; in the test with KM12 it was 98.6 µM (inactive); in the test with MDA-MB-231, 14.9 µM (inactive); in the test on MOLT-4, 0.276 µM (active). Besides, the GI50 is 1.8 µM (inactive) in the test with NCI-H460; 51.4 µM (inactive) with NCI/ADR-RES; > 62.4 µM (inactive) in the test with OVCAR-3; 15.8 µM (inactive) with OVCAR-8; 41.7 µM (inactive) in the test with SF-295; 3.52 µM (inactive) with SK-MEL-2. The GI50 was 15.3 µM (inactive) in the test with SN12C; 54.7 µM (inactive) in the test on SNB-19; 22 µM (inactive) with SNB-75; 13.7 µM (inactive) in the test with SW-620; 71.9 µM (inactive) in the test with U-251; 32.1 µM (inactive) with UACC-62.
Take `C=CCN1CCC(O)(c2cc(C(=O)OCC)[nH]c2-c2cc(C)no2)C1` (stereo not drawn): the GI50 in the test with DU-145 was > 100 µM (inactive); in the test on EKVX, > 100 µM (inactive); in the test on HCT-15, over 100 µM; with KM12, > 100 µM (inactive); in the test with MDA-MB-231, > 100 µM (inactive); in the test on MOLT-4, > 100 µM (inactive). For the same compound, the GI50 in the test with NCI-H460, in the test on NCI/ADR-RES, with OVCAR-3, in the test on OVCAR-8, in the test on SF-295 and in the test on SK-MEL-2 was > 100 µM (inactive) each time. Moreover, the GI50 in the test on SN12C, with SNB-19, in the test with SNB-75, in the test on SW-620, with U-251 and with UACC-62 was > 100 µM (inactive) throughout.
`COC(=O)c1c(C#C[Si](C)(C)C)c(C#C[Si](C)(C)C)c(C#C[Si](C)(C)C)c(C#C[Si](C)(C)C)c1C(=O)OC`: the GI50 in the test on DU-145 was > 100 µM (inactive); in the test with EKVX it was > 100 µM (inactive); with HCT-15, over 100 µM; in the test with KM12, > 100 µM (inactive); in the test on MDA-MB-231 it was > 100 µM (inactive); with MOLT-4, > 100 µM (inactive). The GI50 in the test with NCI-H460, with NCI/ADR-RES, with OVCAR-3, with OVCAR-8, with SF-295 and in the test on SK-MEL-2 was > 100 µM (inactive) throughout. Moreover, the GI50 in the test with SN12C, with SNB-19, in the test on SNB-75, with SW-620, in the test on U-251 and with UACC-62 was > 100 µM (inactive) in each case.
For the compound `Cn1c(S)nc(C(N)=O)c1N`, the GI50 with DU-145 was > 100 µM (inactive); in the test on EKVX, > 100 µM (inactive); in the test on HCT-15, over 100 µM; with KM12, > 100 µM (inactive); with MDA-MB-231, > 100 µM (inactive); in the test on MOLT-4, > 100 µM (inactive). The GI50 in the test with NCI-H460, with NCI/ADR-RES, in the test on OVCAR-3, in the test on OVCAR-8, in the test on SF-295 and in the test on SK-MEL-2 was > 100 µM (inactive) in each case. Moreover, the GI50 with SN12C, with SNB-19, in the test with SNB-75, in the test on SW-620, in the test with U-251 and with UACC-62 was > 100 µM (inactive) each time.
For `C[N+]1(C)CC=C(N2CCOCC2)CC1`, the GI50 is > 10 µM (inactive) with DU-145; > 10 µM (inactive) with EKVX; over 10 µM in the test on HCT-15; > 10 µM (inactive) with KM12; > 10 µM (inactive) with MDA-MB-231; > 10 µM (inactive) in the test on MOLT-4. Further, the GI50 in the test with NCI-H460, in the test with NCI/ADR-RES, in the test with OVCAR-3, in the test on OVCAR-8, in the test on SF-295 and in the test with SK-MEL-2 was > 10 µM (inactive) in each case. Besides, the GI50 in the test with SN12C, with SNB-19, in the test on SNB-75, with SW-620, in the test on U-251 and with UACC-62 was > 10 µM (inactive) throughout.
For `COC(=O)C1CC23C4=C(CCC41)CCC1CN4CC(C)C(CC(OC(C)=O)C12COC(C)=O)C43O` (stereo not drawn), the GI50 in the test with DU-145 was > 100 µM (inactive); in the test with EKVX it was > 100 µM (inactive); in the test with HCT-15, over 100 µM; with KM12, > 100 µM (inactive); in the test on MDA-MB-231, > 100 µM (inactive); with MOLT-4, 68.4 µM (inactive). Moreover, the GI50 in the test on NCI-H460, with NCI/ADR-RES, in the test on OVCAR-3, with OVCAR-8, in the test with SF-295 and in the test on SK-MEL-2 was > 100 µM (inactive) in each case. Besides, the GI50 in the test with SN12C, in the test with SNB-19, in the test on SNB-75, with SW-620, with U-251 and with UACC-62 was > 100 µM (inactive) each time.
Regarding `Cc1nc2c(nc1C)-c1c(c3c(n1Cc1ccccc1)C(=O)CCC3)C(=O)C2=O`, the GI50 in the test with DU-145 is 5.08 µM (inactive); in the test with EKVX, 5.69 µM (inactive); in the test on HCT-15, 3.15 µM; in the test on KM12, 2.09 µM (inactive); in the test on MDA-MB-231 it was 3.61 µM (inactive); in the test with MOLT-4, 2.9 µM (inactive). Further, the GI50 with NCI-H460 is 4.62 µM (inactive); in the test on NCI/ADR-RES, 3.84 µM (inactive); with OVCAR-3, 2.38 µM (inactive); with OVCAR-8, 3.09 µM (inactive); in the test with SF-295, 13.7 µM (inactive); in the test on SK-MEL-2 it was 5.08 µM (inactive). For the same compound, the GI50 was 2.42 µM (inactive) in the test with SN12C; 7.96 µM (inactive) in the test with SNB-19; 3.48 µM (inactive) in the test on SNB-75; 3.07 µM (inactive) in the test with SW-620; 2.9 µM (inactive) in the test with U-251; 14.5 µM (inactive) in the test on UACC-62.
For `O=C1Nc2ccc([N+](=O)[O-])cc2/C1=N/NC(=S)Nc1ccccc1`, the GI50 in the test with DU-145 is 11.8 µM (inactive); in the test on EKVX, 1.21 µM (inactive); with HCT-15, 3.03 µM; in the test with KM12 it was 8.41 µM (inactive); in the test on MDA-MB-231 it was 12.3 µM (inactive); in the test with MOLT-4, 5.98 µM (inactive). Moreover, the GI50 was 3.61 µM (inactive) with NCI-H460; 2.47 µM (inactive) in the test with NCI/ADR-RES; 10 µM (inactive) with OVCAR-3; 5.16 µM (inactive) with OVCAR-8; 4.34 µM (inactive) in the test on SF-295; 11.9 µM (inactive) with SK-MEL-2. Besides, the GI50 was 5.9 µM (inactive) in the test with SN12C; 5.35 µM (inactive) with SNB-19; 7.57 µM (inactive) with SNB-75; 8.99 µM (inactive) with SW-620; 4.93 µM (inactive) in the test on U-251; 11 µM (inactive) in the test on UACC-62.

For the origin of these results see ChEMBL document CHEMBL1201862, “PubChem BioAssay data set” (2004).
